The values that follow come from ChEMBL document CHEMBL1127033, “Synthesis and anti-HIV-1 activity of a series of imidazo[1,5-b]pyridazines” (J Med Chem, 1993).

Several values for one entry are separate records, joined by “and”; a condition that tells them apart may be missing. Equal values may be shown once.

Experiment [1] concerns the target T1, Human immunodeficiency virus type 1 reverse transcriptase (Human immunodeficiency virus 1, UniProt Q72547). The experiment is described as follows: In vitro inhibitory concentration against reverse transcriptase of HIV-1 (RT).
In experiment [2] the test system is MT4. The experiment is described as follows: Inhibition of growth in uninfected MT-4 cells in MTM assay. In kind it is functional, cell-based. As to conditions: Homo sapiens.
Experiment [3] has as its system C8166. Put plainly: Inhibition of p24 antigen formation in infected C8166-cells. In kind it is functional, cell-based. As to conditions: Homo sapiens.
Experiment [4] relates to C8166. The experiment is described as follows: Inhibition of syncytia formation in infected C8166-cells. The experiment is classed as functional, cell-based. The note with it: Homo sapiens.
In experiment [5] the test system is Human immunodeficiency virus 1. Put plainly: (§1) Inhibition of HIV-1 (strain A17)-infected MT-4 cells. In kind it is functional, organism-based. As to conditions: Human immunodeficiency virus 1, MT4.
For experiment [6], the target named is T1, Human immunodeficiency virus type 1 reverse transcriptase. The experiment is described as follows: Inhibition of reverse transcriptase of HIV-1 (strain RF)-infected MT-4 cells in RPMI 1640 growth medium in MTM assay; Toxic. The experiment is classed as cell-based. The note with it: mt4.
The subject of experiment [7] is MT4. Described as §1. The experiment is classed as functional, cell-based. As to conditions: Homo sapiens.
Experiment [8] has as its target T1, Human immunodeficiency virus type 1 reverse transcriptase. Put plainly: Inhibition of reverse transcriptase activity of HIV-1 in the presence of [alpha35 S] TTP as cosubstrate.

For orientation: IC50 means the midpoint of a concentration-inhibition curve. As for `COc1ccc2c(C)nc(CCCCCCC(=O)c3ccccc3)n2n1`, the figures for the IC50 (in experiment [1]; in the experiment on MT4 [2]) were 0.64 µM and 250 µM, respectively.

For the compound `CSc1ccc2c(C)nc(CCCCCCC(=O)c3ccccc3)n2n1`, the IC50 stood at 0.08 µM in experiment [1] and 27 µM in the experiment on MT4 [2].

A word on the EC50: it is the midpoint of the concentration-response curve. Lower therefore signals greater potency. For `Cc1nc(CCCCCCC(O)c2ccccc2)n2nc(-n3ccnc3)ccc12` (stereo unspecified), the EC50 in the experiment on C8166 [3] was 0.004 µM; in the experiment on C8166 [4], 0.006 µM. For the same compound, the 50% inhibitory concentration (IC50) in experiment [1] is 0.23 µM; in the experiment with MT4 [2], 26 µM.

On to `Cc1nc(CCCCCCC(=O)c2ccccc2)n2nc(-n3ccnc3C)ccc12`, for which the concentration for half-maximal inhibition (IC50) was 2.5 µM in experiment [1] and 260 µM in the experiment on MT4 [2].

With `CCc1nc(CCCCCCC(=O)c2ccccc2)n2nc(Cl)ccc12`, the results for the IC50 (in experiment [1]; in the experiment on MT4 [2]) were 2 µM and 25 µM, respectively.

As to `Cc1nc(CCCCCOC(=O)C2CCCC2)n2nc(Cl)ccc12`, the half-maximal inhibitory concentration (IC50) in experiment [1] is 22 µM; in the experiment on MT4 [2] it was 250 µM.

In the case of `Cc1nc(CCCCCC(=O)c2ccccc2)n2nc(Cl)ccc12`, the results for the IC50 (in experiment [1]; in the experiment on MT4 [2]) were 4.8 µM and 250 µM, respectively.

As to `Cc1nc(CCCCCCC(=O)c2ccccc2)n2nc(Cl)ccc12`, the 50% effective concentration (EC50) in the experiment with C8166 [3] and with C8166 [4] was 0.08 µM in each case. In addition, the half-inhibitory concentration (IC50) amounted to 0.84 µM in experiment [1] and 25 µM in the experiment on MT4 [2].

As for `CNc1ccc2c(C)nc(CCCCCCC(=O)c3ccccc3)n2n1`, the half-inhibitory concentration (IC50) amounted to 3.4 µM in experiment [1] and 25 µM in the experiment with MT4 [2].

Regarding `Cc1nc(CCCCCCC(O)c2ccccc2)n2nc(Cl)ccc12` (stereo unspecified), the EC50 in the experiment on C8166 [3] and with C8166 [4] was under 0.08 µM each time. In addition, the half-maximal inhibitory concentration (IC50) in experiment [1] was determined as 0.38 µM; with MT4 [2] it was 250 µM.

As for `O=C(CCCCCCc1ncc2ccc(Cl)nn12)c1ccccc1`, the concentration for a half-maximal effect (EC50) came to 0.34 µM in the experiment with C8166 [3] and 0.21 µM in the experiment with C8166 [4]. Further, the figures for the IC50 (in experiment [1]; in the experiment on MT4 [2]) were 0.34 µM and 25 µM, respectively.

Consider `Cc1nc(CCCCCCC(=O)c2ccccc2)n2nc(-n3cccc3)ccc12`, for which the EC50 turned out to be 0.005 µM with C8166 [3] and 0.007 µM in the experiment with C8166 [4]. Also, the IC50 in experiment [1] stood at 0.08 µM; in the experiment with MT4 [2] it was 26 µM.

Turning to `Cc1nc(CCCCCCC(=O)c2ccccc2)n2nc(-n3cncn3)ccc12`, the IC50 is 0.1 µM in experiment [1] and 26 µM in the experiment with MT4 [2].

Turning to `CC(=O)OCCCCCc1nc(C)c2ccc(Cl)nn12`, the half-inhibitory concentration (IC50) in experiment [1] was 110 µM.

For `Cc1nc(CCCCCCC(=O)c2ccccc2)n2nc(-n3cnnc3)ccc12`, the results for the IC50 (in experiment [1]; in the experiment with MT4 [2]) were 2.6 µM and 260 µM, respectively.

Regarding `Cc1nc(CCCCCCCC(=O)c2ccccc2)n2nc(Cl)ccc12`, the concentration for half-maximal inhibition (IC50) in experiment [1] came to 3 µM; with MT4 [2], 250 µM.

For `Cc1cn(-c2ccc3c(C)nc(CCCCCCC(=O)c4ccccc4)n3n2)cn1`, the 50% effective concentration (EC50) with C8166 [3] came out at 0.16 µM; with C8166 [4] it was 0.065 µM. For the same compound, the figures for the IC50 (in experiment [1]; in the experiment on MT4 [2]) were 0.55 µM and 260 µM, respectively.

In experiment [1], `Cc1nc(CCCCCCC(=O)c2ccccc2)n2nc(N3CCCCC3)ccc12` displayed an IC50 of 6.7 µM.

For `Cc1nc(CCCCCC(=O)Cc2ccccc2)n2nc(Cl)ccc12`, the IC50 in experiment [1] is 3.9 µM; in the experiment on MT4 [2], 28 µM.

In experiment [1], `Cc1nc(CCCCCO)n2nc(Cl)ccc12` showed a concentration for half-maximal inhibition (IC50) of over 100 µM.

`Cc1nc(CCCCCCC(=O)c2ccccc2)n2nc(-n3ccnc3)ccc12`: the concentration giving a half-maximal response (EC50) is 0.005 µM in the experiment with C8166 [3], 0.0006 µM with C8166 [4] and 1.9 µM in experiment [5]. Moreover, the concentration for half-maximal inhibition (IC50) in experiment [1] came to 0.0006 µM; in the experiment with MT4 [2] it was 26 µM.

`Cc1nc(CCCCCCC(=O)c2ccccc2)n2nc(-n3cccn3)ccc12`: the values for the IC50 (in experiment [1]; with MT4 [2]) were 3.4 µM and 26 µM, respectively.

In the case of `Cc1nc(CCCCCOC(=O)c2ccccc2)n2nc(Cl)ccc12`, the figures for the EC50 with C8166 [3] and in the experiment with C8166 [4] were 1.1 µM and 1.6 µM, respectively. Further, the half-maximal inhibitory concentration (IC50) in experiment [1] is 1.34 µM and 1.3 µM; in the experiment on MT4 [2], over 25 µM.

For the compound `Cc1nc(CCCCCCC(=O)c2ccccc2)n2nc(-n3nccn3)ccc12`, the half-inhibitory concentration (IC50) in experiment [1] was found to be 1.3 µM; in the experiment with MT4 [2], 260 µM.

As to `Cc1nc(CCCCCCC(=O)c2ccccc2)n2nc(N)ccc12`, the IC50 in experiment [1] came out at 3 µM; with MT4 [2], 30 µM.

In the case of `Cc1nc(CCCCCCC(=O)c2ccccc2)n2ncccc12`, the values for the IC50 (in experiment [1]; in the experiment with MT4 [2]) were 0.56 µM and 280 µM, respectively.

In the case of `Cc1nc(CCCCCCCc2ccccc2)n2nc(Cl)ccc12`, the concentration for half-maximal inhibition (IC50) is 14 µM in experiment [1] and 250 µM in the experiment on MT4 [2].

For `Cc1nc(CCCCCCC(=O)c2ccccc2)n2nc(N3CCCC3)ccc12`, the IC50 in experiment [1] was 0.05 µM; in the experiment with MT4 [2] it was under 0.03 µM. Moreover, the EC50 entry in experiment [6] is listed as “Toxic”.

For the compound `Cc1nc(CCCCCCC(=O)c2ccccc2)n2nc(N(C)C)ccc12`, the half-inhibitory concentration (IC50) was 0.27 µM in experiment [1] and 27 µM in the experiment with MT4 [2].

As to `CC(C)c1nc(CCCCCCC(=O)c2ccccc2)n2nc(Cl)ccc12`, the midpoint of inhibition in experiment [1], the IC50, lay at 110 µM.

Consider `Cc1nc(CCCCCCC(=O)c2ccccc2)n2nc(-n3cncc3C)ccc12`, for which the half-maximal effective concentration (EC50) in the experiment on C8166 [3] is 0.03 µM; in the experiment on C8166 [4], 0.01 µM. Also, the half-maximal inhibitory concentration (IC50) in experiment [1] was determined as 0.1 µM; in the experiment on MT4 [2] it was 26 µM.

Regarding `Cc1nc(CCCCCCC(=O)c2ccccc2)n2nc(-n3ccnn3)ccc12`, the half-maximal inhibitory concentration (IC50) in experiment [1] is 0.64 µM; with MT4 [2], 26 µM.

As to `Cc1nc(CCCCCOCc2ccccc2)n2nc(Cl)ccc12`, the half-maximal effective concentration (EC50) was determined as 0.38 µM in the experiment with C8166 [3] and 0.58 µM with C8166 [4]. The half-inhibitory concentration (IC50) turned out to be 2.3 µM in experiment [1] and 290 µM in the experiment with MT4 [2].

Regarding `CCc1cc(NCc2nc3c(Cl)ccc(Cl)c3o2)c(O)nc1C` [L-697661], the EC50 was 0.007 µM in the experiment on C8166 [3], over 10 µM with MT4 [7] and 0.007 µM in the experiment with C8166 [4]. The half-maximal inhibitory concentration (IC50) in experiment [8] is 0.85 µM.

Consider `Cc1cn([C@H]2C[C@H](N=[N+]=[N-])[C@@H](CO)O2)c(=O)[nH]c1=O` [ZIDOVUDINE], for which the values for the EC50 (in the experiment with C8166 [3]; in the experiment with C8166 [4]; in experiment [5]) were 0.02 µM, 0.03 µM and 0.01 µM, respectively.
